Assay results published in ChEMBL document CHEMBL3124857, “Encoded library technology as a source of hits for the discovery and lead optimization of a potent and selective class of bactericidal direct inhibitors of Mycobacterium tuberculosis InhA” (J Med Chem, 2014).

System: Mycobacterium tuberculosis
Test: Selectivity for wild type Mycobacterium tuberculosis H37Rv ATCC 25618 over hygromycin-resistance Mycobacterium tuberculosis H37Rv ATCC 25618 overexpressing InhA
Type: functional

In the case of `CCNC(=O)[C@@H]1C[C@@H](NC(=O)c2cc(CC)nn2C)CN1C(=O)c1coc2ccccc12`, the Selectivity ratio was 16.
